Type in all cases: in vivo
Experiment [1] deals with Plasmopara viticola. Put plainly: Grape Downy Mildew control (Example E). Particulars: detached grape leaves, cultivar Emperor, relative to untreated check plants, read-out: % Control GDM. The method, then: The compounds of the invention were tested for the control of the Grape Downy Mildew organism Plasmopara viticola. Detached leaves, between 70 mm and 85 mm in diameter, 7-week-old Vitis vinifera cultivar Emperor grape seedlings were used as hosts. The leaves were sprayed with a 250-ppm solution of the test compound in acetone. The sprayed leaves were dried, inoculated with a spore suspension of the organism, placed in a humid environmental chamber and incubated at 66° F. to 68° F. and about 100% relative humidity. After incubation for 2 days, the plants were then held in a greenhouse 7 to 9 days; then the amount of disease control was determined. The percent disease control provided by a given test compound was based on the percent disease reduction relative to untreated check plants.

The subject of experiment [2] is Septoria apii. Put plainly: whole plant or invertebrate. The settings on record: 336 h, read-out: % Control CLB.
The test system of experiment [3] is Piricularia oryzae. Nature of the experiment: whole plant or invertebrate. The settings on record: Pyricularia oryzae, read-out: % Control RB.
The subject of experiment [4] is Phytophthora infestans. Nature of the experiment: whole plant or invertebrate. The settings on record: in Solanum lycopersicum, 168 h, read-out: % Control TLB.
Experiment [5] deals with Alternaria solani conidia. Put plainly: Tomato Early Blight control (Example D). Particulars: 288 h, tomato seedlings, Bonny Best, inoculated 1 day after spray, relative to untreated check plants, read-out: % Control TEB. The method, then:
Compounds of the invention were tested for the control of the Tomato Early Blight organism Alternaria solani conidia. Tomato (variety Bonny Best) seedlings of 6- to 7-weeks old were used. The tomato plants were sprayed with a 250-ppm solution of the test compound in an acetone-and-water solution containing a small amount of a nonionic emulsifier. The sprayed plants were inoculated 1 day later with the organism, placed in the environmental chamber and incubated at 66° F. to 68° F. and 100% relative humidity for 24 hours. Following the incubation, the plants were maintained in a greenhouse for about 12 days. Percent disease control was based on the percent disease development on untreated check plants.

In experiment [6] the test system is Uromyces phaseoli tipica. Put plainly: Leaf Rust / Bean Rust control (Example F). The settings on record: 336 h, pinto bean plants, rated after about 14 days, relative to untreated check plants, read-out: % Control BR. The method, then:
The Leaf Rust test was made using pinto beans. The pathogen was Uromyces phaseoli tipica. The pinto bean plants were sprayed with a 250-ppm solution of the test compound in an acetone-water mixture containing a nonionic emulsifier. The treated plants were inoculated thereafter with the pathogen and then incubated in an environmental chamber for approximately 20 hours at 100% relative humidity and a temperature of 68° F. to 70° F. The plants were then removed from the chamber, allowed to dry, and then maintained in a greenhouse at a 60% to 80% relative humidity. The rate of infection on the leaves was made after about 14 days. The percent disease control provided by a given test compound was based on the percent disease reduction relative to untreated check plants.

Experiment [7] deals with Erysiphe polygoni. Put plainly: Bean Powdery Mildew control (Example A). The settings on record: 240 h, seedling bean plants, inoculated 1 day after spray, 10 days, relative to untreated check plants, read-out: % Control BPM. The method, then:
The compounds of the invention were tested for the control of the Bean Powdery Mildew organism Erysiphe polygoni. Seedling bean plants were sprayed with a 250-ppm solution of the test compound in acetone, water and a nonionic emusifier. The sprayed plants were then inoculated 1 day later with the organism. The plants were maintained for 10 days at temperatures of 68° F. at night with daytime temperatures of 72° F. to 80° F.; relative humidity was maintained at 40% to 60%. The percent disease control provided by a given test compound was based on the percent disease reduction relative to the untreated check plants.

`CCCN(CC(C)Cc1ccc(C(C)(C)C)cc1)C(=O)c1cccnc1` (centres unmarked) [Compound 23]: the pest or weed control at 250 ppm came to 0% in experiment [1]; 29% in experiment [2]; 7% in experiment [4]; 33% in experiment [5]; 0% in experiment [6]; 100% in experiment [7]. In addition, in experiment [3], the pest or weed control at 625 ppm was 0%.

For `CCN(CCOc1c(Cl)cc(Cl)cc1Cl)C(=O)c1cnccn1` [Compound 36], the pest or weed control at 250 ppm in experiment [1] stood at 45%; in experiment [2], 50%; in experiment [4] it was 0%; in experiment [5], 0%; in experiment [6], 0%; in experiment [7], 75%. Further, the pest or weed control at 625 ppm in experiment [3] is 0%.

In the case of `CCCN(CCOc1ccc(Cl)cc1Cl)C(=O)c1cnccn1` [Compound 7], the pest or weed control at 250 ppm in experiment [1] was determined as 13%; in experiment [2] it was 15%; in experiment [4], 0%; in experiment [5], 0%; in experiment [6], 3%; in experiment [7], 21%. Also, the pest or weed control at 625 ppm in experiment [3] was 0%.

`CCCN(CCCc1ccc(Cl)cc1Cl)C(=O)c1cccnc1` [Compound 27]: the pest or weed control at 250 ppm was determined as 0% in experiment [1]; 35% in experiment [2]; 0% in experiment [4]; 57% in experiment [5]; 3% in experiment [6]; 82% in experiment [7]. The pest or weed control at 625 ppm in experiment [3] was 71%.

As for `O=C(c1cnccn1)N(CCO)CCOc1c(Cl)cc(Cl)cc1Cl` [Compound 31], the pest or weed control at 250 ppm in experiment [1] turned out to be 29%; in experiment [2], 0%; in experiment [4] it was 0%; in experiment [5], 42%; in experiment [6], 0%; in experiment [7] it was 0%. Also, the pest or weed control at 625 ppm in experiment [3] worked out at 0%.

On to `O=C(c1cccnc1)N(CCO)CCOc1c(Cl)cc(Cl)cc1Cl` [Compound 30], for which the pest or weed control at 250 ppm in experiment [1] worked out at 54%; in experiment [2], 32%; in experiment [4], 7%; in experiment [5], 17%; in experiment [6] it was 0%; in experiment [7] it was 33%. Besides, the pest or weed control at 625 ppm in experiment [3] was 0%.

As to `CCCN(CC(C)Cc1ccc(C(C)(C)C)cc1)C(=O)c1cnccn1` (centres unmarked) [Compound 24], the pest or weed control at 250 ppm worked out at 7% in experiment [1]; 17% in experiment [2]; 4% in experiment [4]; 8% in experiment [5]; 0% in experiment [6]; 72% in experiment [7]. In experiment [3], the pest or weed control at 625 ppm came to 0%.

With `CCCN(CCOc1c(C)cc(C)cc1C)C(=O)c1cnccn1` [Compound 15], the pest or weed control at 250 ppm in experiment [1] was 0%; in experiment [2], 15%; in experiment [4], 0%; in experiment [5] it was 67%; in experiment [6] it was 0%; in experiment [7], 44%. Besides, the pest or weed control at 625 ppm in experiment [3] amounted to 29%.

As for `CCOCCN(CCOc1c(Cl)cc(Cl)cc1Cl)C(=O)c1cccnc1` [Compound 33], the pest or weed control at 250 ppm in experiment [1] was 18%; in experiment [2], 54%; in experiment [4], 0%; in experiment [5], 52%; in experiment [6] it was 0%; in experiment [7] it was 88%. Besides, the pest or weed control at 625 ppm in experiment [3] came to 0%.

As to `CCCN(CCOc1ccc(Cl)cc1Cl)C(=O)c1cccnc1` [Compound 8], the pest or weed control at 250 ppm in experiment [1] is 0%; in experiment [2], 45%; in experiment [4], 0%; in experiment [5], 40%; in experiment [6], 3%; in experiment [7], 50%. The pest or weed control at 625 ppm in experiment [3] turned out to be 0%.

Consider `C=CCN(CCOc1c(Cl)cc(Cl)cc1Cl)C(=O)c1cccnc1` [Compound 32, N-allyl, N-(3-pyridylcarbonyl)ethanolamine 2,4,6-trichlorophenylether], for which the pest or weed control at 250 ppm in experiment [1] is 41%; in experiment [2] it was 0%; in experiment [4], 0%; in experiment [5], 0%; in experiment [6], 0%; in experiment [7] it was 4%. The pest or weed control at 625 ppm in experiment [3] came to 0%.

Turning to `CCCN(CCOc1c(Cl)cc(Cl)cc1Cl)C(=O)c1cncn1C` [Compound 12, N-(n-propyl), N-(1-methyl-5-imidazolylcarbonyl)ethanolamine 2,4,6-trichlorophenylether], the pest or weed control at 250 ppm in experiment [1] was found to be 19%; in experiment [2] it was 45%; in experiment [4] it was 18%; in experiment [5], 36%; in experiment [6] it was 29%; in experiment [7] it was 100%. In experiment [3], the pest or weed control at 625 ppm was determined as 0%.

On to `CCOCCN(CCOc1c(Cl)cc(Cl)cc1Cl)C(=O)c1cnccn1` [Compound 34], for which the pest or weed control at 250 ppm in experiment [1] was determined as 7%; in experiment [2], 15%; in experiment [4] it was 0%; in experiment [5], 0%; in experiment [6], 0%; in experiment [7] it was 0%. The pest or weed control at 625 ppm in experiment [3] was 38%.

Take `CCCN(CCOc1c(Cl)cc(Cl)cc1Cl)C(=O)c1cncnc1` [Compound 2, N-(n-propyl), N-(5-pyrimidylcarbonyl)ethanolamine 2,4,6-trichlorophenylether]: the pest or weed control at 250 ppm turned out to be 3% in experiment [1]; 93% in experiment [2]; 0% in experiment [4]; 98% in experiment [5]; 0% in experiment [6]; 100% in experiment [7]. Besides, the pest or weed control at 625 ppm in experiment [3] came out at 38%.

As to `CCCN(CCOc1c(Cl)cc(Cl)cc1Cl)C(=O)c1ccccn1` [Compound 9], the pest or weed control at 250 ppm came to 19% in experiment [1]; 9% in experiment [2]; 0% in experiment [4]; 0% in experiment [5]; 50% in experiment [6]; 0% in experiment [7]. For the same molecule, in experiment [3], the pest or weed control at 625 ppm stood at 10%.

For the molecule `CCCN(CCOc1c(C)cc(C)cc1C)C(=O)c1cccnc1` [Compound 14], the pest or weed control at 250 ppm in experiment [1] worked out at 0%; in experiment [2], 85%; in experiment [4] it was 0%; in experiment [5], 67%; in experiment [6] it was 0%; in experiment [7], 100%. The pest or weed control at 625 ppm in experiment [3] was 64%.

As to `CCCN(Cc1c(Cl)cccc1Cl)C(=O)c1cnccn1` [Compound 28], the pest or weed control at 250 ppm in experiment [1] is 3%; in experiment [2] it was 30%; in experiment [4] it was 4%; in experiment [5] it was 27%; in experiment [6], 7%; in experiment [7], 92%. In experiment [3], the pest or weed control at 625 ppm stood at 0%.

The values are drawn from patent US4782074A (priority 1987, dated 1988).
